Assay results as given in ChEMBL document CHEMBL1144449, “Design, synthesis, and evaluation of orally active 4-(2,4-difluoro-5-(methoxycarbamoyl)phenylamino)pyrrolo[2,1-f][1,2,4]triazines as dual vascular endothelial growth factor receptor-2 and fibroblast growth factor receptor-1 inhibitors” (J Med Chem, 2005).
One block for each compound: values may come before it.

How the values were obtained:
[1] = target: Vascular endothelial growth factor receptor 2 (Homo sapiens, UniProt P35968); test: Inhibition of human vascular endothelial growth factor receptor 2 kinase activity
Chain of Vascular endothelial growth factor receptor 2 (P35968 whole entry): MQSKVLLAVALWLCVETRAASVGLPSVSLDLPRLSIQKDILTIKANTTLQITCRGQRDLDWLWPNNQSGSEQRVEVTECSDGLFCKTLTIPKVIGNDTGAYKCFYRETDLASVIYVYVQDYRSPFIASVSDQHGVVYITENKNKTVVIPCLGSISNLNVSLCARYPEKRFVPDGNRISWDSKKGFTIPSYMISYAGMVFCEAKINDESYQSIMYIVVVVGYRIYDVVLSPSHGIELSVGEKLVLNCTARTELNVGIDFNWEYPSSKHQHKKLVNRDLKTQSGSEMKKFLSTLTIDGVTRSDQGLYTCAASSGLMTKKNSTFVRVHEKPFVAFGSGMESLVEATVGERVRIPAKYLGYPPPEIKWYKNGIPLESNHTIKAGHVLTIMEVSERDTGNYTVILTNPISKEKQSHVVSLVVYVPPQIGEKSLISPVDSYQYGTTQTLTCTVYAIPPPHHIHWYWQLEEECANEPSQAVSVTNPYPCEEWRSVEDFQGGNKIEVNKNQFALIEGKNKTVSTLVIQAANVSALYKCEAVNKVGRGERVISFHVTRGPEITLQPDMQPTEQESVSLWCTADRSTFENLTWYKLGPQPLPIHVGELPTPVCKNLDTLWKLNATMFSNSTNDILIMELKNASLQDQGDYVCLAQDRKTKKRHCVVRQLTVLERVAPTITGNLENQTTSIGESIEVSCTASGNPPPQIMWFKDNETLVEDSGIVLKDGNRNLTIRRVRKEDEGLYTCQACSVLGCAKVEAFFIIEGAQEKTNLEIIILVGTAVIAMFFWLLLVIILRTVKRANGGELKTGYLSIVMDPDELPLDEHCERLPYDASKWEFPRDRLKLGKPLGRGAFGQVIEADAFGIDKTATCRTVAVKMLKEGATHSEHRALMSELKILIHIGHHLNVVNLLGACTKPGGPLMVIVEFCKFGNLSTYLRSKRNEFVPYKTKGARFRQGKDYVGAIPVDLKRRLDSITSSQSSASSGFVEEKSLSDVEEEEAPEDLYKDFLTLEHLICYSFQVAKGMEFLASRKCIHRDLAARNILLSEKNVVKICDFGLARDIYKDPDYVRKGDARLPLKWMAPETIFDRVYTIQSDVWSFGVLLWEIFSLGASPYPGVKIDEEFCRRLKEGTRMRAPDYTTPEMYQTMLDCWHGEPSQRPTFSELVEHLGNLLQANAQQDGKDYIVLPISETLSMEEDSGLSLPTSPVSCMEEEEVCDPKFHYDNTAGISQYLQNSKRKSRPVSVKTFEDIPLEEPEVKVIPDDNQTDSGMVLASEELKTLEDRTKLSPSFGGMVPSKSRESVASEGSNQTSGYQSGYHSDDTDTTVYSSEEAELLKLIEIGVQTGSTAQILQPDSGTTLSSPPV

[2] = target: Fibroblast growth factor receptor 1 (Homo sapiens, UniProt P11362); test: Inhibition of human fibroblast growth factor receptor 1
Chain of Fibroblast growth factor receptor 1 (P11362 whole entry): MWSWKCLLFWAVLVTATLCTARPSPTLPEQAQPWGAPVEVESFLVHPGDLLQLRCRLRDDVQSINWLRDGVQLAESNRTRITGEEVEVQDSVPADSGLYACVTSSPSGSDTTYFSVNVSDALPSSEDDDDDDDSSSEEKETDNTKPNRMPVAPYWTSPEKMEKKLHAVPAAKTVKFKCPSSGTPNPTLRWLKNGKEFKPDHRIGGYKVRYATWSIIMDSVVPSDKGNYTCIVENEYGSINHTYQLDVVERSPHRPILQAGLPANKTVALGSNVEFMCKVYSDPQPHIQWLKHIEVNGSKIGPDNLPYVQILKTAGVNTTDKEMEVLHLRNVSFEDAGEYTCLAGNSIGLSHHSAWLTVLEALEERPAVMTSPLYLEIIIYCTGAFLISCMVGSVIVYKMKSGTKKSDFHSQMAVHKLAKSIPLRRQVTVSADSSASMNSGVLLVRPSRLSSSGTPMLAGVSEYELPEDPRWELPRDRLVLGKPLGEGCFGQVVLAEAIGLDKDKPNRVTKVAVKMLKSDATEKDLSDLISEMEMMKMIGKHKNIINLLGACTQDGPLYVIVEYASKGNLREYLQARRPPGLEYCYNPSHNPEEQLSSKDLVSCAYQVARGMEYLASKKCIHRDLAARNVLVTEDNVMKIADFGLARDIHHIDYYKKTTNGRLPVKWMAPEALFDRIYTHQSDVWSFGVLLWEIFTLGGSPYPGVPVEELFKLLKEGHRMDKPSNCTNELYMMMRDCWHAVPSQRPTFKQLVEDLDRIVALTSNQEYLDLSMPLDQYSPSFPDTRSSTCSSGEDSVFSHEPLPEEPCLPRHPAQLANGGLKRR

[3] = target: Fibroblast growth factor receptor (Homo sapiens, UniProt P22607+P11362+P22455+P21802); test: Inhibition of FGF-stimulated human umbilical vein endothelial cell proliferation; assay type: functional, cell-based
[4] = target: Vascular endothelial growth factor receptor (Homo sapiens, UniProt P17948+P35916+P35968); test: Inhibition of VEGF-stimulated human umbilical vein endothelial cell proliferation; assay type: functional, cell-based
[5] = target: Cyclin-dependent kinase 2 (Homo sapiens, UniProt P24941); test: Inhibition of human cyclin-dependent kinase 2
[6] = Mean residence time determined after administration of 5 mg/kg dose iv in mouse; assay type: ADME, organism-based; set-up: dose 5 mg/kg, route intravenous; conditions: in vivo
[7] = Area under curve determined after administration of 10 mg/kg dose po in mouse; assay type: ADME, organism-based; set-up: dose 10 mg/kg, route oral; conditions: in vivo
[8] = Maximum plasma concentration determined after administration of 10 mg/kg dose po in mouse; assay type: ADME, organism-based; set-up: dose 10 mg/kg, route oral
Mus musculus [9] = test: Tumor growth inhibition of L2987 human lung carcinoma xenografts implanted subcutaneously in athymic mouse after oral administration of 100 mg/kg/day; assay type: functional; conditions: read-out: TGI
[10] = Total time required to reach maximum plasma concentration after administration of 10 mg/kg dose po in mouse; assay type: ADME, organism-based; set-up: dose 10 mg/kg, route oral
[11] = Half-life determined after administration of 5 mg/kg dose iv in mouse; assay type: ADME, organism-based; set-up: dose 5 mg/kg, route intravenous; conditions: in vivo
Mus musculus [12] = test: Tumor growth inhibition of L2987 human lung carcinoma xenografts implanted subcutaneously in athymic mouse after oral administration of 150 mg/kg/day; assay type: functional; conditions: read-out: TGI
[13] = Half-life determined after administration of 10 mg/kg dose po in mouse; assay type: ADME, organism-based; set-up: dose 10 mg/kg, route oral; conditions: in vivo
[14] = Plasma level after 4 hours of oral administration of 10 mg/kg compound in mouse
[15] = Area under curve determined after administration of 5 mg/kg dose iv in mouse; assay type: ADME, organism-based; set-up: dose 5 mg/kg, route intravenous; conditions: in vivo
[16] = Oral bioavailability determined after administration of 10 mg/kg dose po in mouse; assay type: ADME, organism-based; conditions: in vivo
[17] = target: Receptor tyrosine-protein kinase erbB-2 (Homo sapiens, UniProt P04626); test: Inhibition against human HER2 kinase
Chain of Receptor tyrosine-protein kinase erbB-2 (P04626 whole entry): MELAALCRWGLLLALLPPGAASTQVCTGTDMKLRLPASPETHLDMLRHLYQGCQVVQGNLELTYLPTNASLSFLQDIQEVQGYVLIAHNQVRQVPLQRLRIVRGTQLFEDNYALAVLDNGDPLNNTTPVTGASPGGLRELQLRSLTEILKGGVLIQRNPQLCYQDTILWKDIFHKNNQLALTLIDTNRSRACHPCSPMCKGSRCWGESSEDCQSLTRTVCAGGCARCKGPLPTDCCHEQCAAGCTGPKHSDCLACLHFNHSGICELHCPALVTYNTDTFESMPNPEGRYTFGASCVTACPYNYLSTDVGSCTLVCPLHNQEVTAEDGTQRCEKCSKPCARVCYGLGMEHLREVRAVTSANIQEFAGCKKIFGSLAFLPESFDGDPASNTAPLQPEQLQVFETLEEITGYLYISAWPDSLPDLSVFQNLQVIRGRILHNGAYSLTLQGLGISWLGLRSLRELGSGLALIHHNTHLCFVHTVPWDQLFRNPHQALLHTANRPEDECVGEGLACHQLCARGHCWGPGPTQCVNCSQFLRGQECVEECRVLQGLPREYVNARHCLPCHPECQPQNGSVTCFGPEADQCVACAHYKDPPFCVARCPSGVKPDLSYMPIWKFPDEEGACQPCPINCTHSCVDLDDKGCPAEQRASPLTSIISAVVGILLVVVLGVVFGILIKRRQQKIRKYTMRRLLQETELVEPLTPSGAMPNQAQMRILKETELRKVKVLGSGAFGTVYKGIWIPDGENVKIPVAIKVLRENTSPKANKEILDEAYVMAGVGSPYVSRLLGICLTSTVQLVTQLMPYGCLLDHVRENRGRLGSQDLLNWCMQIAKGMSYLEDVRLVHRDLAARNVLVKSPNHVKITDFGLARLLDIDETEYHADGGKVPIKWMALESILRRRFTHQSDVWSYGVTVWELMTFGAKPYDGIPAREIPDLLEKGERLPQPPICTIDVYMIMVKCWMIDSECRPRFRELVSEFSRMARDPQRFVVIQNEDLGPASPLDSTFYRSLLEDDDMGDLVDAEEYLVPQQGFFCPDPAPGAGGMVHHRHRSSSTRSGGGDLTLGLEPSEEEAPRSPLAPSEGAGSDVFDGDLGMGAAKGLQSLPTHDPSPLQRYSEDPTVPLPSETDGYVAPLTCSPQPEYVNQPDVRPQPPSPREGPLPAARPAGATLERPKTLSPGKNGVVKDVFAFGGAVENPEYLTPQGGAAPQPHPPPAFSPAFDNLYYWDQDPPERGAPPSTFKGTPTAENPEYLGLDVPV

[18] = Plasma level after 1 hour of oral administration of 10 mg/kg compound in mouse
Mus musculus [19] = test: Tumor growth inhibition of L2987 human lung carcinoma xenografts implanted subcutaneously in athymic mouse after oral administration of 50 mg/kg/day; assay type: functional; conditions: read-out: TGI
[20] = Systemic plasma clearance determined after administration of 5 mg/kg dose iv in mouse; assay type: ADME, organism-based; set-up: dose 5 mg/kg, route intravenous
[21] = Maximum plasma concentration determined after administration of 5 mg/kg dose iv in mouse; assay type: ADME, organism-based; set-up: dose 5 mg/kg, route intravenous
[22] = Steady-state volume of distribution determined after administration of 5 mg/kg dose iv in mouse; assay type: ADME, organism-based; set-up: dose 5 mg/kg, route intravenous; conditions: in vivo, read-out: Vss
[23] = Mean residence time determined after administration of 10 mg/kg dose po in mouse; assay type: ADME, organism-based; set-up: dose 10 mg/kg, route oral; conditions: in vivo
[24] = target: Tyrosine-protein kinase Lck (Homo sapiens, UniProt P06239); test: Inhibition of human p56 lck tyrosine kinase
Chain of Tyrosine-protein kinase Lck (P06239 whole entry): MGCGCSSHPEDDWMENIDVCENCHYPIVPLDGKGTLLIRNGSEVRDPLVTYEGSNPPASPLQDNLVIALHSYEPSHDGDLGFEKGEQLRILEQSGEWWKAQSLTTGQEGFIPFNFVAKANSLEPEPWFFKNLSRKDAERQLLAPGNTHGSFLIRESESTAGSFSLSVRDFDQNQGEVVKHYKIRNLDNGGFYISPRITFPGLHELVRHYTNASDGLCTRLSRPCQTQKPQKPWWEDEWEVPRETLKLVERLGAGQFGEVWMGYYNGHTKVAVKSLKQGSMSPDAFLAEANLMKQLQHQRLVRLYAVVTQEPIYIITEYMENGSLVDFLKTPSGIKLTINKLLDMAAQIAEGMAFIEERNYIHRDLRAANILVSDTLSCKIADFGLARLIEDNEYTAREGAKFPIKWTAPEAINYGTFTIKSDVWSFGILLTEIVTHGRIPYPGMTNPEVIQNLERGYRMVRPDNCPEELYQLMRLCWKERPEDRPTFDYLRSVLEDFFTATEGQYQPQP

[25] = target: Protein kinase C alpha type (Homo sapiens, UniProt P17252); test: Inhibition of human protein kinase C alpha
[26] = Plasma level after 4 hours of oral administration of 50 mg/kg compound in mouse; assay type: ADME, organism-based; set-up: dose 50 mg/kg, route oral; conditions: read-out: Plasma level
[27] = target: Platelet-derived growth factor receptor beta (Homo sapiens, UniProt P09619); test: Inhibition of human platelet-derived growth factor receptor beta
[28] = Plasma level after 1 hour of oral administration of 50 mg/kg compound in mouse; assay type: ADME, organism-based; set-up: dose 50 mg/kg, route oral; conditions: read-out: Plasma level
[29] = target: Insulin-like growth factor 1 receptor (Homo sapiens, UniProt P08069); test: Inhibition of human insulin-like growth factor I receptor

SMILES: CCOC(=O)c1cn2ncnc(Nc3cc(C(=O)NOC(C)C)c(F)cc3F)c2c1C(C)C
IC50 [1]: 0.35 µM

SMILES: CONC(=O)c1cc(Nc2ncnn3cc(-c4nnc(C(F)(F)S(C)(=O)=O)o4)c(C(C)C)c23)c(F)cc1F
IC50 [5]: > 50 µM
MRT [6]: 4.9 h
AUC [7]: 155 µM·h
IC50 [2]: 0.22 µM
Cmax [8]: 27.7 µM
inhibition in vivo at 100 mg/kg/day (Mus musculus [9]): 87.5%
Tmax [10]: 0.5 h
half-life [11]: 2.5 h
IC50 [3]: 0.13 µM
inhibition in vivo at 150 mg/kg/day (Mus musculus [12]): 94.2%
half-life [13]: 3.6 h
concentration at 4 h [14]: 13.8 µM
AUC [15]: 97.4 µM·h
bioavailability [16]: 79%
IC50 [17]: > 25 µM
concentration at 1 h [18]: 26.6 µM
inhibition in vivo at 50 mg/kg/day (Mus musculus [19]): 63.9%
clearance [20]: 0.0918 L/h/kg
Cmax [21]: 23.7 µM
Vd [22]: 0.45 L/kg
MRT [23]: 5.2 h
IC50 [24]: 7.8 µM
IC50 [25]: > 50 µM

SMILES: CCOC(=O)c1cn2ncnc(Oc3cccc(C(=O)NOC)c3)c2c1C(C)C
IC50 [1]: 0.27 µM

SMILES: CCOC(=O)c1cn2ncnc(Nc3cccc(C(=O)NOC)c3)c2c1C(C)C
IC50 [1]: 0.13 µM

SMILES: CONC(=O)c1cc(Nc2ncnn3cc(-c4nnc(C)o4)c(C(C)C)c23)c(F)cc1F
IC50 [5]: > 50 µM
IC50 [2]: 0.019 µM
IC50 [3]: 0.0065 µM
concentration at 4 h [26]: 37.7 µM
IC50 [17]: 8 µM
IC50 [27]: > 2 µM
concentration at 1 h [28]: 132 µM
IC50 [29]: > 25 µM
IC50 [25]: > 50 µM

SMILES: CONC(=O)c1cc(Nc2ncnn3cc(NC(=O)OCC4CCCO4)c(C(C)C)c23)c(F)cc1F (stereo not given)
IC50 [5]: > 50 µM
concentration at 4 h [26]: 2.9 µM
IC50 [17]: > 10 µM
concentration at 1 h [28]: 29.5 µM
IC50 [29]: > 25 µM
IC50 [25]: > 50 µM

SMILES: CONC(=O)c1cc(Nc2ncnn3cc(-c4nc(C)no4)c(C(C)C)c23)c(F)cc1F
IC50 [2]: 0.11 µM
IC50 [3]: 0.0076 µM
IC50 [1]: 0.049 µM
IC50 [4]: 0.0068 µM

SMILES: CONC(=O)c1cc(Nc2ncnn3cc(-c4nnc(C(C)C)o4)c(C(C)C)c23)c(F)cc1F
IC50 [2]: 0.039 µM
IC50 [3]: 0.001 µM
IC50 [1]: 0.022 µM
IC50 [4]: 0.018 µM

SMILES: CONC(=O)c1cc(Nc2ncnn3cc(NC(=O)OCc4ccccc4)c(C(C)C)c23)c(F)cc1F
IC50 [1]: 0.18 µM

The next lines start with the values.

IC50 [2]: 0.018 µM
IC50 [3]: 0.0073 µM
IC50 [1]: 0.011 µM
IC50 [4]: 0.0067 µM
SMILES: CONC(=O)c1cc(Nc2ncnn3cc(-c4nnc(N(C)C)o4)c(C(C)C)c23)c(F)cc1F

IC50 [1]: 0.04 µM
SMILES: CCONC(=O)c1cc(Nc2ncnn3cc(C(=O)OCC)c(C(C)C)c23)c(F)cc1F

IC50 [1]: 0.034 µM
SMILES: CCOC(=O)c1cn2ncnc(Nc3cc(C(=O)NOC)ccc3F)c2c1C(C)C

IC50 [1]: 0.079 µM
SMILES: CCOC(=O)c1cn2ncnc(Nc3ccc(F)c(C(=O)NOC)c3)c2c1C(C)C

IC50 [1]: 0.12 µM
SMILES: CCOC(=O)c1cn2ncnc(Nc3ccc(C)c(C(=O)NOC)c3)c2c1C(C)C

IC50 [1]: 0.066 µM
IC50 [4]: 0.031 µM
SMILES: CCOC(=O)Nc1cn2ncnc(Nc3cc(C(=O)NOC)c(F)cc3F)c2c1C(C)C

IC50 [2]: 0.084 µM
IC50 [3]: 0.033 µM
IC50 [1]: 0.076 µM
IC50 [4]: 0.035 µM
SMILES: CONC(=O)c1cc(Nc2ncnn3cc(-c4nnc(C(F)(F)F)o4)c(C(C)C)c23)c(F)cc1F

IC50 [2]: 0.028 µM
IC50 [3]: 0.0047 µM
IC50 [1]: 0.017 µM
IC50 [4]: 0.0018 µM
SMILES: CCc1nnc(-c2cn3ncnc(Nc4cc(C(=O)NOC)c(F)cc4F)c3c2C(C)C)o1

IC50 [2]: 0.149 µM
IC50 [1]: 0.066 µM
SMILES: CONC(=O)c1cc(Nc2ncnn3cc(-c4nnc(CN(C)C)o4)c(C(C)C)c23)c(F)cc1F
